Assay results: patent US8420820B2, “Pyrrolopyridinylpyrimidin-2-ylamine derivatives” (Merck Patent GmbH, priority 2008, dated 2013)

Tests used:
[1] = system: PDK1 kinase activity in PC3 cells (phospho-T308-PKB); assay: Cellular testing of PDK1 kinase inhibitors in PC3 cells (Luminex, phospho-T308-PKB); assay type: cell-based; conditions: Homo sapiens, PC-3, 0.5 h, 30 min with test substance, serum-free, phospho-T308-PKB by Luminex, read-out: IC50 [PC3 P-PKB Thr308]
Experimental: Method for the Cellular Testing of PDK1 Kinase Inhibitors in PC3 Cells.
The cellular assay for the determination of the PDK1 kinase activity is carried out as a Luminex assay in the 96-well format. PC3 cells are sown at 20,000 cells per well in 100 μl of medium (45% of […]/45% of Ham's F12/10% of FCS) and incubated on the following day for 30 min with a serial dilution of the test substance (7 concentrations) under serum-free conditions. The cells are subsequently lysed using 90 μl of lysis buffer (20 mM tris/HCl pH 8.0, 150 mM NaCl, 1% of NP40, 10% of glycerol, 1% of phosphatase inhibitor I, 1% of phosphatase inhibitor II, 0.1% of protease inhibitor cocktail III, 0.01% of benzonase) per well, and the lysates are separated off from insoluble cell constituents by means of centrifugation through a 96-well filter plate (0.65 μm). The lysates are incubated overnight at 4° C. with shaking with Luminex beads to which an anti-total PKB antibody is coupled. The detection is carried out on the following day by addition of a phospho-T308-PKB antibody and a species-specific […] secondary antibody. The detection of phospho-T308-PKB is carried out by measurement in a Luminex100 instrument by determination of 100 events per cavity in a measurement time of 60 sec. As pharmacological blank, the signals obtained from cells which have been treated with 10 μM staurosporin are subtracted from all other batches. The control value used for maximum phosphorylation of PKB on T308 are the signals from cells which have only been treated with the solvent (0.3% of DMSO). The values of the batches treated with test substance are calculated therefrom as percentage of control, and IC50 values are determined by means of RS1.

PDK1 = target: T1, PDK1 (Homo sapiens, UniProt O15530); assay: Test for the inhibition of PDK1 (flashplate, 33P-ATP); assay type: biochemical; conditions: His6-PDK1 3.4 nM, 4 μM ATP, 30° C., 60 min
T1 construct: His6 (N)
T1 sequence (O15530 51-556): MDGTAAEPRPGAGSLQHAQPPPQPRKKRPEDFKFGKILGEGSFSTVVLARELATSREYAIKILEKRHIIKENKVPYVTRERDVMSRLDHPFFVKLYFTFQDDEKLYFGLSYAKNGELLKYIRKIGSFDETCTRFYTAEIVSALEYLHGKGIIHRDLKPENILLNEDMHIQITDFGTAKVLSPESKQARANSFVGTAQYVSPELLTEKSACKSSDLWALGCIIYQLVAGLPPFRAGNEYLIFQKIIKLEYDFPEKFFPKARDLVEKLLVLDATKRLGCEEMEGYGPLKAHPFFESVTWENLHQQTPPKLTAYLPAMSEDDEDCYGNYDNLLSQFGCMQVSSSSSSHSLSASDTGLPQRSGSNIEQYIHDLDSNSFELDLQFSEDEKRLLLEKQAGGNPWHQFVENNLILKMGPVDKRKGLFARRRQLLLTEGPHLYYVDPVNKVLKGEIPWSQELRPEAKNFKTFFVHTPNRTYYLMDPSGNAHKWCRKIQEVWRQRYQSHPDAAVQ
Experimental: The experimental batches are carried out in a flashplate system with 384 wells/microtitration plate.
In each case, the PDK1 sample His6-PDK1(SEQ ID NO: 2)(1-50)(3.4 nM), the PDK1 substrate biotin-bA-bA-[…] (SEQ ID NO: 3) (400 nM), 4 μM ATP (with 0.2 μCi of ^33P-ATP/well) and the test substance in 50 μl of conventional experimental solution per well are incubated at 30° C. for 60 min. The test substances are employed in corresponding concentrations (if desired in a dilution series). The control is carried out without test substance. The reaction is stopped using standard methods and washed. The activity of the kinase is measured via the incorporated radioactivity in top count. In order to determine the non-specific kinase reaction (blank value), the experimental batches are carried out in the presence of 100 nM staurosporin.
The radioactivity (decompositions per minute) of the blank value (no use of test substance in the presence of staurosporin) is subtracted from all other radioactivity values. The controls (kinase activity without test substance) are set equal to 100 percent and all other radioactivity values (after subtracting the blank value) are expressed set in relation thereto (for example in % of the control).
IC50 values (50% inhibition) are determined with the aid of statistics programmes, such as, for example, RS1.

Row | Compound | IC50 [1] | IC50 (PDK1)
1 | CCc1cc(-c2c[nH]c3ncc(-c4cnn(CCO)c4)cc23)nc(N)n1 [Compound A33, 2-{4-[3-(2-Amino-6-ethylpyrimidin-4-yl)-1H-pyrrolo[2,3-b]pyridin-5-yl]pyrazol-1-yl}ethanol] | 10000 to 20000 nM | 10 to 1000 nM
2 | CCc1cc(-c2c[nH]c3ncc(-c4cnn(CC(=O)N(C)C)c4)cc23)nc(N)n1 [Compound A34, 2-{4-[3-(2-Amino-6-ethylpyrimidin-4-yl)-1H-pyrrolo[2,3-b]pyridin-5-yl]pyrazol-1-yl}-N,N-dimethylacetamide] | 10000 to 20000 nM | 10 to 1000 nM
3 | CCCC(O)c1cc(-c2c[nH]c3ncc(-c4cnn(C(C)C)c4)cc23)nc(N)n1 (stereo not shown) [Compound A35, 1-{2-Amino-6-[5-(1-isopropyl-1H-pyrazol-4-yl)-1H-pyrrolo[2,3-b]pyridin-3-yl]-pyrimidin-4-yl}butan-1-ol] | 1000 to 10000 nM | 10 to 1000 nM
4 | CC(O)Cc1cc(-c2c[nH]c3ncc(-c4cnn(C(C)C)c4)cc23)nc(N)n1 (stereo not shown) [Compound A36, 1-{2-Amino-6-[5-(1-isopropyl-1H-pyrazol-4-yl)-1H-pyrrolo[2,3-b]pyridin-3-yl]-pyrimidin-4-yl}propan-2-ol] | 10000 to 20000 nM | 10 to 1000 nM
5 | CCc1cc(-c2c[nH]c3ncc(-c4ccc(Cl)s4)cc23)nc(N)n1 [Compound A37, 4-[5-(5-Chlorothiophen-2-yl)-1H-pyrrolo[2,3-b]pyridin-3-yl]-6-ethylpyrimidin-2-ylamine] | 10000 to 20000 nM | 1000 to 10000 nM
6 | CC(C)n1cc(-c2cnc3[nH]cc(-c4cc(CCCO)nc(N)n4)c3c2)cn1 [Compound A38, 3-{2-Amino-6-[5-(1-isopropyl-1H-pyrazol-4-yl)-1H-pyrrolo[2,3-b]pyridin-3-yl]-pyrimidin-4-yl}propan-1-ol] | 10000 to 20000 nM | 10 to 1000 nM
7 | CN(C)CCn1cc(-c2cnc3[nH]cc(-c4cc(CCCCO)nc(N)n4)c3c2)cn1 [Compound A39, 4-(2-Amino-6-{5-[1-(2-dimethylaminoethyl)-1H-pyrazol-4-yl]-1H-pyrrolo-[2,3-b]pyridin-3-yl}pyrimidin-4-yl)butan-1-ol] | 10000 to 20000 nM | 10 to 1000 nM
8 | CC(C)n1cc(-c2cnc3[nH]cc(-c4cc(CCCCO)nc(N)n4)c3c2)cn1 [Compound A40, 4-{2-Amino-6-[5-(1-isopropyl-1H-pyrazol-4-yl)-1H-pyrrolo[2,3-b]pyridin-3-yl]-pyrimidin-4-yl}butan-1-ol] | 1000 to 10000 nM | 10 to 1000 nM
9 | CN(C)CCn1cc(-c2cnc3[nH]cc(-c4cc(CCN5CCN(C)CC5)nc(N)n4)c3c2)cn1 [Compound A41, 4-{5-[1-(2-Dimethylaminoethyl)-1H-pyrazol-4-yl]-1H-pyrrolo[2,3-b]pyridin-3-yl}-6-[2-(4-methylpiperazin-1-yl)ethyl]pyrimidin-2-ylamine] | 10000 to 20000 nM | 10 to 1000 nM
10 | CCc1cc(-c2c[nH]c3ncc(-c4ncc(-c5cccc(N)c5)o4)cc23)nc(N)n1 [Compound A42, 4-{5-[5-(3-Aminophenyl)oxazol-2-yl]-1H-pyrrolo[2,3-b]pyridin-3-yl}-6-ethylpyrimidin-2-ylamine] | 10000 to 20000 nM | 1000 to 10000 nM
11 | CC(C)n1cc(-c2cnc3[nH]cc(-c4cc(CCN5CCN(C)CC5)nc(N)n4)c3c2)cn1 [Compound A43, 4-[5-(1-Isopropyl-1H-pyrazol-4-yl)-1H-pyrrolo[2,3-b]pyridin-3-yl]-6-[2-(4-methylpiperazin-1-yl)ethyl]pyrimidin-2-ylamine] | 10000 to 20000 nM | 10 to 1000 nM
12 | CCc1cc(-c2c[nH]c3ncc(-c4cnn(C5CCN(S(C)(=O)=O)CC5)c4)cc23)nc(N)n1 [Compound A44, 4-Ethyl-6-{5-[1-(1-methanesulfonylpiperidin-4-yl)-1H-pyrazol-4-yl]-1H-pyrrolo[2,3-b]pyridin-3-yl}pyrimidin-2-ylamine] | 1000 to 10000 nM | 10 to 1000 nM
13 | CCc1cc(-c2c[nH]c3ncc(-c4cnn(C5CCN(C(C)=O)CC5)c4)cc23)nc(N)n1 [Compound A46, 1-(4-{4-[3-(2-Amino-6-ethylpyrimidin-4-yl)-1H-pyrrolo[2,3-b]pyridin-5-yl]-pyrazol-1-yl}piperidin-1-yl)ethanone] | 10000 to 20000 nM | 10 to 1000 nM
14 | CCCC(O)c1cc(-c2c[nH]c3ncccc23)nc(N)n1 (stereo not shown) [Compound A48, 1-[2-Amino-6-(1H-pyrrolo[2,3-b]pyridin-3-yl)pyrimidin-4-yl]butan-1-ol] | 10000 to 20000 nM | 1000 to 10000 nM

Other lines, results leading:

Row | IC50 [1] | IC50 (PDK1) | Compound
15 | 10000 to 20000 nM | 1000 to 10000 nM | Nc1nc(CCN2CCOCC2)cc(-c2c[nH]c3ncccc23)n1 [Compound A49, 4-(2-Morpholin-4-ylethyl)-6-(1H-pyrrolo[2,3-b]pyridin-3-yl)pyrimidin-2-ylamine]
16 | 10000 to 20000 nM | 1000 to 10000 nM | CN1CCN(CCc2cc(-c3c[nH]c4ncccc34)nc(N)n2)CC1 [Compound A50, 4-[2-(4-Methylpiperazin-1-yl)ethyl]-6-(1H-pyrrolo[2,3-b]pyridin-3-yl)pyrimidin-2-ylamine]
17 | 10000 to 20000 nM | 10 to 1000 nM | CCc1cc(-c2c[nH]c3ncc(-c4cnn(CC(=O)NC)c4)cc23)nc(N)n1 [Compound A51, 2-{4-[3-(2-Amino-6-ethylpyrimidin-4-yl)-1H-pyrrolo[2,3-b]pyridin-5-yl]pyrazol-1-yl}-N-methylacetamide]
18 | 10000 to 20000 nM | 10 to 1000 nM | CCc1cc(-c2c[nH]c3ncc(-c4cnn(CC(=O)NC5CC5)c4)cc23)nc(N)n1 [Compound A52, 2-{4-[3-(2-Amino-6-ethylpyrimidin-4-yl)-1H-pyrrolo[2,3-b]pyridin-5-yl]pyrazol-1-yl}-N-cyclopropylacetamide]
19 | 10000 to 20000 nM | 10 to 1000 nM | CC(C)n1cc(-c2cnc3[nH]cc(-c4cc(C5(O)CCCCC5)nc(N)n4)c3c2)cn1 [Compound A53, 1-{2-Amino-6-[5-(1-isopropyl-1H-pyrazol-4-yl)-1H-pyrrolo[2,3-b]pyridin-3-yl]-pyrimidin-4-yl}cyclohexanol]
20 | 10000 to 20000 nM | 10 to 1000 nM | CC(C)n1cc(-c2cnc3[nH]cc(-c4cc(C5(O)CCCC5)nc(N)n4)c3c2)cn1 [Compound A54, 1-{2-Amino-6-[5-(1-isopropyl-1H-pyrazol-4-yl)-1H-pyrrolo[2,3-b]pyridin-3-yl]-pyrimidin-4-yl}cyclopentanol]
21 | 1000 to 10000 nM | 10 to 1000 nM | CCCCc1cc(-c2c[nH]c3ncc(-c4cnn(CC(=O)N5CCCCC5)c4)cc23)nc(N)n1 [Compound A58, 2-{4-[3-(2-amino-6-butylpyrimidin-4-yl)-1H-pyrrolo[2,3-b]pyridin-5-yl]-pyrazol-1-yl}-1-piperidin-1-ylethanone]
22 | 1000 to 10000 nM | 10 to 1000 nM | CCc1cc(-c2c[nH]c3ncc(-c4ccc(CN)cc4)cc23)nc(N)n1 [Compound A81, 4-[5-(4-Aminomethylphenyl)-1H-pyrrolo[2,3-b]pyridin-3-yl]-6-ethylpyrimidin-2-ylamine]
23 | 1000 to 10000 nM | 10 to 1000 nM | CCCCc1cc(-c2c[nH]c3ncc(-c4cnn(CCN(C)C)c4)cc23)nc(N)n1 [Compound A85, 4-Butyl-6-{5-[1-(2-dimethylaminoethyl)-1H-pyrazol-4-yl]-1H-pyrrolo[2,3-b]-pyridin-3-yl}pyrimidin-2-ylamine]
24 | 1000 to 10000 nM | 10 to 1000 nM | CCCCc1cc(-c2c[nH]c3ncc(-c4cnn(C5CCN(C(C)=O)CC5)c4)cc23)nc(N)n1 [Compound A86, 1-(4-{4-[3-(2-Amino-6-butylpyrimidin-4-yl)-1H-pyrrolo[2,3-b]pyridin-5-yl]-pyrazol-1-yl}piperidin-1-yl)ethanone]
25 | 1000 to 10000 nM | 10 to 1000 nM | CCCCc1cc(-c2c[nH]c3ncc(-c4cnn(C5CCNCC5)c4)cc23)nc(N)n1 [Compound A87, 4-Butyl-6-[5-(1-piperidin-4-yl-1H-pyrazol-4-yl)-1H-pyrrolo[2,3-b]pyridin-3-yl]-pyrimidin-2-ylamine]
26 | 1000 to 10000 nM | 10 to 1000 nM | CCCCc1cc(-c2c[nH]c3ncc(-c4cnn(CCO)c4)cc23)nc(N)n1 [Compound A88, 2-{4-[3-(2-Amino-6-butylpyrimidin-4-yl)-1H-pyrrolo[2,3-b]pyridin-5-yl]pyrazol-1-yl}ethanol]
